According to PubChem BioAssay AID248 (DTP/NCI, 2004):
“And” between values parts separate entries of the source, which are not always exact repeats. Identical values can stand only once. Toxic doses and inconclusive results are not listed. No stated cut-off is given here; in the data, active means T/C of 150% or more; inactive means T/C below 125%.

System: L1210 leukemia ip in BDF1 mice, survival T/C
Test: NCI In Vivo Anticancer Drug Screen. Data for tumor model L1210 Leukemia (intraperitoneal) in B6D2F1 (BDF1) mice
Settings: endpoint: mean survival time, higher = longer survival
Summary of the method: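 Transplanted-tumor mice were given test agent; controls received vehicle only. Survival readings from the two groups were divided (treated over control).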

[1] = dose: 100.0 mg/kg/injection, schedule: Q04DX002 (ip), vehicle: saline with Tween-80
[2] = dose: 200.0 mg/kg/injection, schedule: Q04DX002 (ip), vehicle: saline with Tween-80
[3] = dose: 400.0 mg/kg/injection, schedule: Q04DX002 (ip), vehicle: saline with Tween-80
[4] = dose: 100.0 mg/kg/injection, schedule: Q01DX009 (ip), vehicle: saline with Tween-80
[5] = dose: 100.0 mg/kg/injection, schedule: Q04DX003 (ip), vehicle: saline with Tween-80
[6] = dose: 200.0 mg/kg/injection, schedule: Q01DX009 (ip), vehicle: saline with Tween-80
[7] = dose: 200.0 mg/kg/injection, schedule: Q04DX003 (ip), vehicle: saline with Tween-80
[8] = dose: 400.0 mg/kg/injection, schedule: Q01DX009 (ip), vehicle: saline with Tween-80
[9] = dose: 400.0 mg/kg/injection, schedule: Q04DX003 (ip), vehicle: saline with Tween-80
[10] = dose: 100.0 mg/kg/injection, schedule: Q01DX009 (ip), vehicle: saline
[11] = dose: 200.0 mg/kg/injection, schedule: Q01DX009 (ip), vehicle: saline

Measured: T/C

O=C(ON=C1C=CC(=NOC(=O)c2ccccc2)C=C1)c1ccccc1
inactive: dose: 100.0 mg/kg/injection, schedule: Q01DX001 (ip), vehicle: saline 97 % of control | dose: 200.0 mg/kg/injection, schedule: Q01DX001 (ip), vehicle: saline 102 % of control | dose: 400.0 mg/kg/injection, schedule: Q01DX001 (ip), vehicle: saline 91 % of control

O=C([O][Bi]([c]1ccccc1)[c]1ccccc1)C(F)(F)F
inactive: [1] 95 % of control | [2] 95 % of control | [3] 92 % of control

CCCCCCCCCCCCCCCC[N+](C)(CCO)Cc1ccccc1 (centres undefined)
inactive: dose: 12.5 mg/kg/injection, schedule: Q04DX002 (ip), vehicle: saline with Tween-80 93 % of control

CCc1cccc(CC)c1NC(=O)Nc1cc(Cl)ccc1C
inactive: dose: 25.0 mg/kg/injection, schedule: Q04DX003 (ip), vehicle: saline with Tween-80 94 % of control | dose: 50.0 mg/kg/injection, schedule: Q04DX003 (ip), vehicle: saline with Tween-80 105 % of control and 86 % of control | dose: 100.0 mg/kg/injection, schedule: Q01DX001 (ip), vehicle: saline with Tween-80 105 % of control | [4] 97 % of control and 111 % of control | [1] 95 % of control and 103 % of control | [5] 87 % of control and 91 % of control | dose: 200.0 mg/kg/injection, schedule: Q01DX001 (ip), vehicle: saline with Tween-80 90 % of control | [6] 97 % of control and 113 % of control | [2] 103 % of control | [7] 91 % of control | dose: 400.0 mg/kg/injection, schedule: Q01DX001 (ip), vehicle: saline with Tween-80 89 % of control | [8] 94 % of control and 97 % of control | [3] 98 % of control and 89 % of control | [9] 88 % of control

CSc1ccc(NC(=S)NC(=O)c2ccc(Cl)cc2Cl)cc1
inactive: [4] 93 % of control and 89 % of control | [1] 90 % of control and 92 % of control | [6] 96 % of control and 88 % of control | [2] 93 % of control and 100 % of control | [8] 96 % of control and 100 % of control | [3] 107 % of control and 90 % of control

COc1cc(Cn2cccc2C=O)c([N+](=O)[O-])cc1OC
inactive: dose: 25.0 mg/kg/injection, schedule: Q04DX002 (ip), vehicle: Klucel (hydroxypropylcellulose) (HPC) 89 % of control | dose: 50.0 mg/kg/injection, schedule: Q04DX002 (ip), vehicle: Klucel (hydroxypropylcellulose) (HPC) 101 % of control | dose: 100.0 mg/kg/injection, schedule: Q04DX002 (ip), vehicle: Klucel (hydroxypropylcellulose) (HPC) 86 % of control

CN(C)CCCCCCN(C)C (tested in a mixture with another compound)
inactive: dose: 9.38 mg/kg/injection, schedule: Q01DX001 (ip), vehicle: saline 102 % of control | dose: 18.75 mg/kg/injection, schedule: Q01DX001 (ip), vehicle: saline 95 % of control | dose: 37.5 mg/kg/injection, schedule: Q01DX001 (ip), vehicle: saline 93 % of control

Cc1ccc(S(=O)(=O)N/N=C/C=C/c2ccccc2)cc1
inactive: [1] 103 % of control | [2] 93 % of control | [3] 93 % of control

CC1(C)C(C)(C)C1(F)Cl
inactive: dose: 100.0 mg/kg/injection, schedule: Q01DX001 (ip), vehicle: carboxymethylcellulose (CMC) 101 % of control | dose: 200.0 mg/kg/injection, schedule: Q01DX001 (ip), vehicle: carboxymethylcellulose (CMC) 106 % of control | dose: 400.0 mg/kg/injection, schedule: Q01DX001 (ip), vehicle: carboxymethylcellulose (CMC) 118 % of control

CCN(CC)CCN(C)C
inactive: [10] 102 % of control | dose: 100.0 mg/kg/injection, schedule: Q04DX003 (ip), vehicle: saline 105 % of control | [11] 107 % of control | dose: 200.0 mg/kg/injection, schedule: Q04DX003 (ip), vehicle: saline 97 % of control | dose: 400.0 mg/kg/injection, schedule: Q04DX003 (ip), vehicle: saline 97 % of control

CN(/N=C/C(O)C(O)C(O)CO)c1ccccc1 (centres undefined)
inactive: [10] 95 % of control | [5] 102 % of control and 98 % of control | [11] 90 % of control | [7] 93 % of control and 96 % of control | [9] 94 % of control and 96 % of control
